Source: ChEMBL document CHEMBL1201862, “PubChem BioAssay data set” (2004)
Several values for one entry are separate records, joined by “and”; a condition that tells them apart may be missing. Equal values may be shown once.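 Step 1: Grow cells in 96-well plates. Step 2: Expose to compound for 48 hours at 5 concentrations. Step 3: Interpolate endpoints linearly; if unreached, use highest concentration. GI50 is the concentration that inhibits growth by half.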 Activity calls are given as the source filed them. Rule as the data show it: active = GI50 up to about 1.1 µM and inactive = higher. Residues, ends and D or L forms follow the SMILES beside them. *: point of attachment. X38 = O=C(c1ccc(-c2ccc(Cl)cc2Cl)o1)*

What was measured:
Assay in all cases: NCI-60 cell line screen, 48 h
OVCAR-4 = system: OVCAR-4
OVCAR-3 = system: OVCAR-3
SW-620 = system: SW-620
OVCAR-5 = system: OVCAR-5
SF-295 = system: SF-295
SR = system: SR
UACC-62 = system: UACC-62
NCI-H522 = system: NCI-H522
TK-10 = system: TK-10
OVCAR-8 = system: OVCAR-8
DU-145 = system: DU-145
NCI-H460 = system: NCI-H460
HOP-92 = system: HOP-92
NCI/ADR-RES = system: NCI/ADR-RES
MDA-N = system: MDA-N
HOP-62 = system: HOP-62
U-251 = system: U-251
SN12C = system: SN12C
CAKI-1 = system: CAKI-1
HCC 2998 = system: HCC 2998

Row | SMILES | GI50 (OVCAR-4) | GI50 (OVCAR-3) | GI50 (SW-620) | GI50 (OVCAR-5) | GI50 (SF-295) | GI50 (SR) | GI50 (UACC-62) | GI50 (NCI-H522) | GI50 (TK-10) | GI50 (OVCAR-8) | GI50 (DU-145) | GI50 (NCI-H460) | GI50 (HOP-92) | GI50 (NCI/ADR-RES) | GI50 (MDA-N) | GI50 (HOP-62) | GI50 (U-251) | GI50 (SN12C) | GI50 (CAKI-1) | GI50 (HCC 2998)
2 | NCC1OC(n2cnc3c(=O)[nH]c(N)nc32)C(O)C1O (stereo unspecified) | > 100 µM (inactive) | > 53.3 µM (inactive) | > 100 µM (inactive) | > 100 µM (inactive) | > 100 µM (inactive) | < 0.01 µM (active) | > 100 µM (inactive) | > 100 µM (inactive) | > 59.7 µM (inactive) | > 100 µM (inactive) | > 100 µM (inactive) | > 100 µM (inactive) | > 100 µM (inactive) | > 100 µM (inactive) | > 100 µM (inactive) | > 100 µM (inactive) | > 100 µM (inactive) | > 100 µM (inactive) | > 100 µM (inactive) | 
3 | COC(=O)C(CC(C)C)NC(=O)C(Cc1ccccc1)NC(=O)C1CCCN1C(=O)C(CO)NC(=O)c1ccc(-c2ccc(Cl)cc2Cl)o1 (stereo unspecified) (X38-SPFL-OMe; configuration not given here) | 31.2 µM (inactive) |  | 30.7 µM (inactive) | 21.9 µM (inactive) | 19.5 µM (inactive) |  | 23.8 µM (inactive) | 28.1 µM (inactive) | 24.8 µM (inactive) | 36.4 µM (inactive) | 38 µM (inactive) | 17.3 µM (inactive) | 21.2 µM (inactive) | 28.8 µM (inactive) | 35.5 µM (inactive) |  | 21.4 µM (inactive) | 32.1 µM (inactive) | 28.3 µM (inactive) | 13.2 µM (inactive)
4 | CNC(=O)N1CN(c2ccccc2)C2(CCN(Cc3ccccc3)CC2)C1=O |  | > 100 µM (inactive) | 46.1 µM (inactive) | 1.05 µM (active) | > 100 µM (inactive) | 15.7 µM (inactive) | 69.8 µM (inactive) | > 100 µM (inactive) | 62.5 µM (inactive) | > 100 µM (inactive) | > 100 µM (inactive) |  |  | 12.2 µM (inactive) | 29.2 µM (inactive) | > 100 µM (inactive) | > 100 µM (inactive) | > 100 µM (inactive) | > 100 µM (inactive) | 9.84 µM (inactive)
5 | COc1ccc(-c2nc(-c3ccc(OC)cc3)n(-c3ccccc3)n2)cc1 | 31.7 µM (inactive) | 46.8 µM (inactive) | > 100 µM (inactive) | > 100 µM (inactive) | > 100 µM (inactive) |  | 86.5 µM (inactive) | 11.8 µM (inactive) | > 100 µM (inactive) | > 100 µM (inactive) | > 100 µM (inactive) | > 100 µM (inactive) | 52 µM (inactive) | > 100 µM (inactive) | > 100 µM (inactive) | > 100 µM (inactive) | 78.9 µM (inactive) | > 100 µM (inactive) | > 100 µM (inactive) | 
6 | COc1cc2c[n+](C)c3c4ccccc4ccc3c2cc1OC | 9.4 µM (inactive) | 6.05 µM (inactive) | 1.95 µM (inactive) | 26.7 µM (inactive) | 16.9 µM (inactive) |  | 4.6 µM (inactive) | 0.302 µM (active) | 26.7 µM (inactive) | 2.71 µM (inactive) | 3.8 µM (inactive) | 10 µM (inactive) |  | > 100 µM (inactive) | 4.45 µM (inactive) | 18.6 µM (inactive) | 0.726 µM (active) | 1.32 µM (inactive) | 55.3 µM (inactive) | 4.81 µM (inactive)
7 | COc1cc2c(cc1OC)C1Cc3cc(OC)c(OC)cc3C(C2)N1C | > 100 µM (inactive) | > 100 µM (inactive) | > 100 µM (inactive) | > 100 µM (inactive) | 40.6 µM (inactive) |  | 61.1 µM (inactive) | > 100 µM (inactive) |  | > 100 µM (inactive) | > 75 µM (inactive) |  | 7.71 µM (inactive) | > 75 µM (inactive) | 63.1 µM (inactive) | > 75 µM (inactive) and 44.3 µM (inactive) | > 100 µM (inactive) | > 100 µM (inactive) and 62.5 µM (inactive) | 85.1 µM (inactive) | > 75 µM (inactive)
8 | CCOC(=O)N(Cc1cccs1)c1cc(OC)c(OC)c(OC)c1 | 32.1 µM (inactive) | 53.8 µM (inactive) | > 100 µM (inactive) | > 100 µM (inactive) | > 100 µM (inactive) | 21.3 µM (inactive) | 40 µM (inactive) | 32.6 µM (inactive) | > 100 µM (inactive) | 90.4 µM (inactive) | > 100 µM (inactive) | 51.1 µM (inactive) |  | 3.01 µM (inactive) | 28.9 µM (inactive) | > 100 µM (inactive) | > 100 µM (inactive) | > 100 µM (inactive) | 56.5 µM (inactive) | > 100 µM (inactive)
9 | CC(=O)Oc1ccccc1-c1cc2ccccc2oc1=O |  | 22.4 µM (inactive) | > 100 µM (inactive) | > 100 µM (inactive) | 91.2 µM (inactive) | > 100 µM (inactive) |  | 61.1 µM (inactive) |  | > 100 µM (inactive) | > 100 µM (inactive) | > 100 µM (inactive) |  | 76.9 µM (inactive) | > 100 µM (inactive) | > 100 µM (inactive) |  | > 100 µM (inactive) |  | > 100 µM (inactive)
10 | O=C1c2cc3ccccc3cc2C2(c3ccc(Cl)cc3)N[C@H]3CCCC[C@@H]3N12 (stereo partly specified) | 6.34 µM (inactive) | 19.4 µM (inactive) | 17.4 µM (inactive) | 21 µM (inactive) | 13.8 µM (inactive) | 14.7 µM (inactive) | 15 µM (inactive) |  | 11.7 µM (inactive) | 5.77 µM (inactive) | 17.9 µM (inactive) | 14.9 µM (inactive) | 27.8 µM (inactive) | 14.2 µM (inactive) | 18.1 µM (inactive) | 6.79 µM (inactive) | 14.2 µM (inactive) | 16.6 µM (inactive) | 22.6 µM (inactive) | 
11 | COC(=O)c1c(C)cccc1CC1Cc2c(C)cccc2C1=O (stereo unspecified) | 32.8 µM (inactive) | 24.1 µM (inactive) | 40.6 µM (inactive) | 80.2 µM (inactive) | 32.8 µM (inactive) |  | 23.8 µM (inactive) | 13.2 µM (inactive) | 35.2 µM (inactive) | 48.3 µM (inactive) | 60.1 µM (inactive) | 35 µM (inactive) | 24.4 µM (inactive) | 19.9 µM (inactive) | 30.3 µM (inactive) | 61.9 µM (inactive) | 40 µM (inactive) | 43.4 µM (inactive) | 33.4 µM (inactive) | 27.9 µM (inactive)
12 | CSc1nc(C)cc(Nc2ccc(O)c(CN3CCCCC3)c2)n1 | > 100 µM (inactive) | > 100 µM (inactive) | 71.9 µM (inactive) | 28.6 µM (inactive) | 37.9 µM (inactive) | 32.1 µM (inactive) | 60.8 µM (inactive) | 72.1 µM (inactive) |  | > 100 µM (inactive) | 64.3 µM (inactive) |  | 72.4 µM (inactive) | > 100 µM (inactive) | 28 µM (inactive) | > 100 µM (inactive) |  | 56.6 µM (inactive) | > 100 µM (inactive) | 
13 | Nn1c(CCCCCCCCc2nnc(COc3ccc(Cl)cc3Cl)n2N)nnc1COc1ccc(Cl)cc1Cl | 46.5 µM (inactive) |  | > 100 µM (inactive) | 35.6 µM (inactive) | > 10 µM (inactive) |  | 38.6 µM (inactive) | 17.3 µM (inactive) | 89.9 µM (inactive) |  | 42.9 µM (inactive) | 63.8 µM (inactive) | 28.4 µM (inactive) | 31.1 µM (inactive) | 62.5 µM (inactive) |  | 62.4 µM (inactive) | 22.2 µM (inactive) | 41.9 µM (inactive) | 56.6 µM (inactive)
14 | COc1cc2oc3c(c(=O)c2c(O)c1/C=C/C(C)C)C(C=C(C)C)Oc1cc(O)ccc1-3 (stereo unspecified) | 16.6 µM (inactive) | 15 µM (inactive) | 16.1 µM (inactive) | 17 µM (inactive) | 17.1 µM (inactive) |  | 17.2 µM (inactive) | 16.8 µM (inactive) | 16.4 µM (inactive) | 16.2 µM (inactive) | 16.3 µM (inactive) | 14.5 µM (inactive) | 15.6 µM (inactive) | 16.1 µM (inactive) | 16.9 µM (inactive) |  | 16.7 µM (inactive) | 16.1 µM (inactive) | 18 µM (inactive) | 12.1 µM (inactive)
15 | C=CCN(Cc1ccncc1)C(=O)C(O)(c1ccccc1)c1ccccc1 |  | 50.6 µM (inactive) | > 100 µM (inactive) | > 100 µM (inactive) | 57.3 µM (inactive) | 32.7 µM (inactive) | 39.1 µM (inactive) | 34.3 µM (inactive) | > 100 µM (inactive) | 86.9 µM (inactive) | > 100 µM (inactive) |  |  | 17.7 µM (inactive) | 45.8 µM (inactive) | > 100 µM (inactive) | 76.2 µM (inactive) | > 100 µM (inactive) | 31.5 µM (inactive) | > 100 µM (inactive)
